The structures appear in SMILES notation. pIC50: −log10 of the molar value. Several values for one entry are separate records, joined by “and”; a condition that tells them apart may be missing. Identical values can stand only once. Bounds are passed on as bounds.

Assay [1] deals with T1, 11-beta-hydroxysteroid dehydrogenase 1 (Mus musculus, UniProt P50172). Nature of the assay: Inhibition of mouse 11beta-HSD1.
Assay [2] deals with T2, 11-beta-hydroxysteroid dehydrogenase 1 (Homo sapiens, UniProt P28845). Briefly: Inhibition of human 11beta-HSD1.
T2 sequence (P28845 whole entry): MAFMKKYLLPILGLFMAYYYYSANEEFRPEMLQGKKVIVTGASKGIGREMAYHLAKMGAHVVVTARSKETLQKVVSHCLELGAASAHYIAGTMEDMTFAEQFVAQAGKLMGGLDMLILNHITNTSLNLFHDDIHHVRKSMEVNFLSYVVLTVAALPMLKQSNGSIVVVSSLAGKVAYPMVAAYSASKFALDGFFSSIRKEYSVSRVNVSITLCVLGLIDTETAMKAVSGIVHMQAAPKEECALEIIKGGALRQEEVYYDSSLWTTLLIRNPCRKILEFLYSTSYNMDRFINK
Assay [3] concerns the target T3, 11-beta-hydroxysteroid dehydrogenase 1 (Rattus norvegicus, UniProt P16232). Nature of the assay: Inhibition of rat 11beta-HSD1.
Assay [4] addresses T2, 11-beta-hydroxysteroid dehydrogenase 1. Nature of the assay: Inhibition of human 11beta-HSD1 using steroid as substrate incubated for 20 to 30 mins by microplate fluorimeter analysis.
The target of assay [5] is T1, 11-beta-hydroxysteroid dehydrogenase 1. Briefly: Inhibition of mouse 11beta-HSD1 in liver microsome incubated for 24 hrs by LC-MS analysis. It is filed as microsomes. A general note: Liver microsomes are vesicles of endoplasmic reticulum, rich in cytochrome P450 enzymes.
Assay [6] has as its target T2, 11-beta-hydroxysteroid dehydrogenase 1. Briefly: Inhibition of human 11beta-HSD1 in liver microsome incubated for 24 hrs by LC-MS analysis. The assay is classed as microsomes.
In assay [7] the target is Hydroxysteroid 11-beta dehydrogenase 1 (Macaca mulatta, UniProt Q56D22). Briefly: Inhibition of monkey 11beta-HSD1 in liver microsome incubated for 24 hrs by LC-MS analysis. It is filed as microsomes.
Sequence of Hydroxysteroid 11-beta dehydrogenase 1 (Q56D22 whole entry): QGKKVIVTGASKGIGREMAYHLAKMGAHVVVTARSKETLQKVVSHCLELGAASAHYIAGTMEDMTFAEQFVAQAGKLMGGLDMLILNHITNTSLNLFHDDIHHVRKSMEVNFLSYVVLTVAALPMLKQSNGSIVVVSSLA
The target in assay [8] is T1, 11-beta-hydroxysteroid dehydrogenase 1. Briefly: Inhibition of mouse 11beta-HSD1 expressed in CHO-K1 cells incubated for 3 hrs by HTRF assay. It is filed as cell-based. In general terms: TR-FRET usually uses a lanthanide donor and a delayed reading to cut background.
The target is the same in assay [9]. Briefly: Inhibition of mouse 11beta-HSD1 expressed in 3T3-L1 cells incubated for 24 hrs by HTRF assay. The assay is classed as cell-based.
The target is the same in assay [10]. Briefly: Inhibition of mouse 11beta-HSD1 expressed in CHO-K1 cells incubated for 24 hrs by HTRF assay. The assay is classed as cell-based.
Assay [11] is described as follows: Inhibition of rat 11beta-HSD2 expressed in Leydig cells. The assay is classed as cell-based.
In assay [12] the target is T3, 11-beta-hydroxysteroid dehydrogenase 1. Briefly: Inhibition of rat 11beta-HSD1 expressed in Leydig cells. The assay is classed as cell-based.
Assay [13] concerns the target T4, 11-beta-hydroxysteroid dehydrogenase type 2 (Homo sapiens, UniProt P80365).
T4 sequence (P80365 whole entry): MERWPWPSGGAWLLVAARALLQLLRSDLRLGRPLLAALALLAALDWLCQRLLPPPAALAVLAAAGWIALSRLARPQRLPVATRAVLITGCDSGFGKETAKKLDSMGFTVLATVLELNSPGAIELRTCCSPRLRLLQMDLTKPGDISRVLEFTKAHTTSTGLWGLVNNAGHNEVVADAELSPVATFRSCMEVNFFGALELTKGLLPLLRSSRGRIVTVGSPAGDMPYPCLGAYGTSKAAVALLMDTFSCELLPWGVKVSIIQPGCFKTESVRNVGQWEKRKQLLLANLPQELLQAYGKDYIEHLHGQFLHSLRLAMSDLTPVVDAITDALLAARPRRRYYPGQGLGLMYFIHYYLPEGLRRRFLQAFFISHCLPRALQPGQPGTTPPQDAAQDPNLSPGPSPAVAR
Nature of the assay: Inhibition of human 11beta-HSD2 incubated for 2 hrs by HPLC analysis.

Assay [14] concerns the target T1, 11-beta-hydroxysteroid dehydrogenase 1. Nature of the assay: Inhibition of mouse 11beta-HSD1 incubated for 24 hrs by HTRF assay.
Assay [15] has as its target T3, 11-beta-hydroxysteroid dehydrogenase 1. Nature of the assay: Inhibition of rat 11beta-HSD1 in kidney microsomes incubated for 20 mins by HPLC analysis. The arrangement: species or system Microsome.
Assay [16] concerns the target 11-beta-hydroxysteroid dehydrogenase 1 (Rattus norvegicus) (UniProt P16232). Nature of the assay: Inhibition of rat 11beta-HSD1 in adipose tissue microsome.
Assay [17] concerns the target T2, 11-beta-hydroxysteroid dehydrogenase 1. Briefly: Inhibition of human 11beta-HSD1 incubated for 30 mins by HPLC-MS/MS analysis.

T1 sequence (P50172 whole entry): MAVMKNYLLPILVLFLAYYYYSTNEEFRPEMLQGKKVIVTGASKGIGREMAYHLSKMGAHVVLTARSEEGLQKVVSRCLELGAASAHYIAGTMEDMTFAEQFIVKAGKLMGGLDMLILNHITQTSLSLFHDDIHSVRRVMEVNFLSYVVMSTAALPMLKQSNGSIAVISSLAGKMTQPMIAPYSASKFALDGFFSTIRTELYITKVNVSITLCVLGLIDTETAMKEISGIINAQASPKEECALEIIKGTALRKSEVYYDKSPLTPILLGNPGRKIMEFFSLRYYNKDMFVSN
T3 sequence (P16232 whole entry): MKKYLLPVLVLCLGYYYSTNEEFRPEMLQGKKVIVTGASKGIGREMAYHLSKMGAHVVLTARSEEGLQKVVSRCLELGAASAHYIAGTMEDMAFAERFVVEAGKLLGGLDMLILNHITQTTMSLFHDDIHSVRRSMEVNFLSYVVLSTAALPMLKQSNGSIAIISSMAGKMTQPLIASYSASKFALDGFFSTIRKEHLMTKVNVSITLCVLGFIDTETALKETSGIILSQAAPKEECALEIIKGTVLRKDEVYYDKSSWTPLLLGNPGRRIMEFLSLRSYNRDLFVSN

As to `C[C@@H]1CN(c2ccc(F)cc2C(F)(F)F)CCN1S(=O)(=O)c1cccc([C@@](C)(O)C(F)(F)F)c1` [HSD-016], the pIC50 in assay [1] was 9.00 and 8.10; in assay [2] it was 7.96; in [3] it was 8.10. Regarding `O=C(Cc1csc(NS(=O)(=O)c2c(Cl)cc(Cl)cc2Cl)n1)N1CCOCC1`, in [4], the pIC50 is 6.47. Turning to `CN(CC1(C(=O)NC23CC4CC(C2)CC(C(N)=O)(C4)C3)CC1)S(=O)(=O)c1ccccc1F`, the negative logarithm of the IC50 (pIC50) in [5] was 8.55; in [6], 10.70; in [7], 8.61. On to `NC(=O)C12CC3CC(CC(NC(=O)C4SCCN4S(=O)(=O)c4ccccc4F)(C3)C1)C2` (configuration not stated), for which the negative logarithm of the IC50 (pIC50) is 8.28 in assay [8] and 8.52 in assay [9].

In assay [10], `NC(=O)C12CC3CC(CC(NC(=O)CN4CCCN(c5c(Cl)cc(Cl)cc5Cl)S4(=O)=O)(C3)C1)C2` showed a pIC50 of 9.40. `O=S(=O)(c1ccccc1)N1CCN(c2ncccc2C(F)(F)F)CC1` showed a negative-log IC50 (pIC50) in assay [2] of 7.21. Regarding `O=C1/C(=C\c2ccccc2C(F)(F)F)CCC/C1=C\c1ccccc1C(F)(F)F`, the results for the pIC50 in assay [11] and in assay [12] were less than 4.00 and 7.00, respectively.

In turn, `O=C(NC12CC3CC(CC(C3)C1)C2)C1NCCS1` (configuration not stated) had a pIC50 in assay [8] of 5.67. `O=C(O[C@@H]1Cc2c(O)cc(O)cc2O[C@@H]1c1cc(O)c(O)c(O)c1)c1cc(O)c(O)c(O)c1` [EPIGALOCATECHIN GALLATE] had a pIC50 in assay [13] of 4.68. For `O=C(CN1C(C(=O)c2ccccc2)=C(O)c2ccccc2S1(=O)=O)c1ccccc1`, in assay [14], the pIC50 is 6.68. Turning to `Oc1ccc(/C=C/c2cc(O)cc(O)c2)cc1` [RESVERATROL], the negative-log IC50 (pIC50) was 4.45 in assay [15] and 6.00 in [16]. In assay [1], `C[C@@H](c1ccc(-c2ccn(C)c(=O)c2)cc1)N1CC[C@](CC(C)(C)O)(c2ccccc2)OC1=O` had a negative logarithm of the IC50 (pIC50) of 8.37. In assay [4], `Cc1nc(NS(=O)(=O)c2ccc(Cl)cc2Cl)sc1CC(Cl)(Cl)Cl` showed a pIC50 of 7.26. For `CC1=C2[C@H](C)[C@@H](C)O[C@]23O[C@H](C)[C@@H](C)O[C@@]3(O)CC1=O`, in assay [17], the negative logarithm of the IC50 (pIC50) was 5.04.

`O=S(=O)(Nc1nc(-c2sccc2Cl)cs1)c1cc(F)c(Br)cc1F` had a pIC50 in assay [4] of 7.20.

The pIC50 is the negative decadic logarithm of the IC50, by convention in mol/L.

The values above are taken from ChEMBL document CHEMBL5244232, “Progress in 11β-HSD1 inhibitors for the treatment of metabolic diseases: A comprehensive guide to their chemical structure diversity in drug development” (Eur J Med Chem, 2020).
